Reference: ChEMBL document CHEMBL5038609, “A camptothecin-based, albumin-binding prodrug enhances efficacy and safety in vivo” (Eur J Med Chem, 2021)
Active and inactive are the calls of the source. The calls are words filed in the database; no cut-off is given here.

Assays:
[1] = Drug accumulation in mouse 4T1 cells implanted female BALB/c mouse tumor at 0.5 mg/kg, iv after 2 hrs by fluorescence detector; assay type: ADME, organism-based, Neoplasm; settings: in vivo
4T1 [2] = assay: Antitumor activity against mouse 4T1 cells implanted in female BALB/c mouse assessed as inhibition of tumor growth at 0.5 mg/kg, iv administered twice a week for 2 weeks measured on day 18; assay type: functional; set-up: scale not given: the % may be the effect or the level left; settings: time 18 day
[3] = Drug accumulation in mouse 4T1 cells implanted female BALB/c mouse kidney at 0.5 mg/kg, iv by fluorescence detector; assay type: ADME, organism-based; settings: in vivo
4T1 [4] = assay: Antitumor activity against mouse 4T1 cells implanted in female BALB/c mouse assessed as reduction on tumor volume at 0.5 mg/kg, iv administered twice a week for 2 weeks; assay type: functional, organism-based
[5] = Drug accumulation in mouse 4T1 cells implanted female BALB/c mouse lung at 0.5 mg/kg, iv by fluorescence detector; assay type: ADME, organism-based; settings: in vivo
Mus musculus [6] = assay: Antitumor activity against mouse 4T1 cells implanted in female BALB/c mouse assessed as increase in body weight at 0.5 mg/kg, iv administered twice a week for 2 weeks; assay type: functional, organism-based
[7] = Toxicity in iv dosed female BALB/c mouse assessed as maximum tolerated dose administered once daily for 14 consecutive days; assay type: organism-based; settings: in vivo, time 14 day
[8] = Toxicity in female BALB/c mouse assessed as body weight loss at 0.2 to 1.2 mg/kg, iv administered once daily for 14 consecutive days; assay type: organism-based; settings: in vivo, 336 h, dose 0.2-1.2 mg/kg, time 14 day
MCF7 [9] = assay: Antiproliferative activity against human MCF7 cells assessed as reduction on cell proliferation in presence of beta-glucuronidase measured after 72 hrs by MTT assay; assay type: functional, cell-based
[10] = Plasma protein binding in male Sprague-Dawley rat measured after 2 mins by HPLC analysis; assay type: ADME, cell-free; settings: read-out: PPB (converted)
4T1 [11] = assay: Antitumor activity against mouse 4T1 cells implanted in female BALB/c mouse assessed as inhibition of tumor growth at 0.6 to 1.2 mg/kg, iv by Ki67 staining based assay; assay type: functional, organism-based; settings: dose 0.6-1.2 mg/kg
[12] = Drug distribution in mouse 4T1 cells implanted in female BALB/c mouse assessed as fold change in tumor at 1.2 mg/kg, iv measured after 48 hrs by fluorescence detector; assay type: ADME, organism-based, Neoplasm; settings: in vivo
[13] = Toxicity in mouse 4T1 cells implanted in female BALB/c mouse assessed as pathological changes in kidney at 0.6 to 1.2 mg/kg, iv by H and E staining based analysis; assay type: organism-based; settings: in vivo, dose 0.6-1.2 mg/kg
albumin [14] = molecular target: T1, albumin (Homo sapiens, UniProt P02768); assay: Protein binding in human serum albumin measured after 0.25 mins by HPLC analysis; assay type: ADME, cell-free; settings: read-out: PPB (converted)
4T1 [15] = assay: Antitumor activity against mouse 4T1 cells implanted in female BALB/c mouse assessed as reduction on tumor volume at 0.6 to 1.2 mg/kg, iv administered twice a week for 2 weeks; assay type: functional, organism-based; settings: dose 0.6-1.2 mg/kg
4T1 [16] = assay: Antiproliferative activity against mouse 4T1 cells assessed as reduction on cell proliferation measured after 72 hrs by MTT assay; assay type: functional, cell-based
[17] = Drug accumulation in mouse 4T1 cells implanted female BALB/c mouse tumor at 1.2 mg/kg, iv after 6 hrs by fluorescence detector; assay type: ADME, organism-based, Neoplasm; settings: in vivo
[18] = Plasma protein binding in female BALB/c mouse measured after 0.25 mins by HPLC analysis; assay type: ADME, cell-free; settings: read-out: PPB (converted)
MCF7 [19] = assay: Antiproliferative activity against human MCF7 cells assessed as reduction on cell proliferation measured after 72 hrs by MTT assay; assay type: functional, cell-based
[20] = Plasma protein binding in human measured after 0.25 mins by HPLC analysis; assay type: ADME, cell-free; settings: read-out: PPB (converted)
4T1 [21] = assay: Antiproliferative activity against mouse 4T1 cells assessed as reduction on cell proliferation in presence of beta-glucuronidase measured after 72 hrs by MTT assay; assay type: functional, cell-based
A549 [22] = assay: Antiproliferative activity against human A549 cells assessed as reduction on cell proliferation measured after 72 hrs by MTT assay; assay type: functional, cell-based
[23] = Drug distribution in mouse 4T1 cells implanted in female BALB/c mouse assessed as fold change in tumor at 1.2 mg/kg, iv measured after 2 hrs by fluorescence detector; assay type: ADME, organism-based, Neoplasm; settings: in vivo
[24] = Toxicity in mouse 4T1 cells implanted in female BALB/c mouse assessed as pathological changes in spleen at 0.6 to 1.2 mg/kg, iv by H and E staining based analysis; assay type: organism-based; settings: in vivo, dose 0.6-1.2 mg/kg
HCT-116 [25] = assay: Antiproliferative activity against human HCT-116 cells assessed as reduction on cell proliferation measured after 72 hrs by MTT assay; assay type: functional, cell-based
HepG2 [26] = assay: Antiproliferative activity against human HepG2 cells assessed as reduction on cell proliferation in presence of beta-glucuronidase measured after 72 hrs by MTT assay; assay type: functional, cell-based
[27] = Toxicity in female BALB/c mouse assessed as body weight loss at 1 to 10 mg/kg, iv administered once daily for 14 consecutive days; assay type: organism-based; settings: in vivo, 336 h, dose 1-10 mg/kg, time 14 day
4T1 [28] = assay: Antitumor activity against mouse 4T1 cells implanted in female BALB/c mouse assessed as inhibition of tumor growth at 0.6 mg/kg, iv administered twice a week for 2 weeks measured on day 18; assay type: functional; set-up: scale not given: the % may be the effect or the level left; settings: time 18 day
Mus musculus [29] = assay: Antitumor activity against mouse 4T1 cells implanted in female BALB/c mouse assessed as increase in body weight at 0.6 to 1.2 mg/kg, iv administered twice a week for 2 weeks; assay type: functional, organism-based; settings: dose 0.6-1.2 mg/kg
[30] = Toxicity in mouse 4T1 cells implanted in female BALB/c mouse assessed as pathological changes in lung at 0.6 to 1.2 mg/kg, iv by H and E staining based analysis; assay type: organism-based; settings: in vivo, dose 0.6-1.2 mg/kg
[31] = Drug distribution in mouse 4T1 cells implanted in female BALB/c mouse assessed as fold change in tumor at 1.2 mg/kg, iv measured after 24 hrs by fluorescence detector; assay type: ADME, organism-based, Neoplasm; settings: in vivo
A549 [32] = assay: Antiproliferative activity against human A549 cells assessed as reduction on cell proliferation in presence of beta-glucuronidase measured after 72 hrs by MTT assay; assay type: functional, cell-based
[33] = Drug distribution in mouse 4T1 cells implanted in female BALB/c mouse assessed as fold change in tumor at 1.2 mg/kg, iv measured after 6 hrs by fluorescence detector; assay type: ADME, organism-based, Neoplasm; settings: in vivo
4T1 [34] = assay: Antitumor activity against mouse 4T1 cells implanted in female BALB/c mouse assessed as tumor cell apoptosis at 0.6 to 1.2 mg/kg, iv by TUNEL staining based fluorescence assay; assay type: functional, organism-based; settings: dose 0.6-1.2 mg/kg
[35] = Plasma protein binding in female BALB/c mouse measured after 2 mins by HPLC analysis; assay type: ADME, cell-free; settings: read-out: PPB (converted)
[36] = Toxicity in mouse 4T1 cells implanted in female BALB/c mouse assessed as pathological changes in liver at 0.6 to 1.2 mg/kg, iv by H and E staining based analysis; assay type: organism-based; settings: in vivo, dose 0.6-1.2 mg/kg
HCT-116 [37] = assay: Antiproliferative activity against human HCT-116 cells assessed as reduction on cell proliferation in presence of beta-glucuronidase measured after 72 hrs by MTT assay; assay type: functional, cell-based
[38] = Plasma protein binding in male Sprague-Dawley rat measured after 0.25 mins by HPLC analysis; assay type: ADME, cell-free; settings: read-out: PPB (converted)
[39] = Plasma protein binding in human measured after 2 mins by HPLC analysis; assay type: ADME, cell-free; settings: read-out: PPB (converted)
[40] = Toxicity in mouse 4T1 cells implanted in female BALB/c mouse assessed as pathological changes in heart at 0.6 to 1.2 mg/kg, iv by H and E staining based analysis; assay type: organism-based; settings: in vivo, dose 0.6-1.2 mg/kg
HepG2 [41] = assay: Antiproliferative activity against human HepG2 cells assessed as reduction on cell proliferation measured after 72 hrs by MTT assay; assay type: functional, cell-based
albumin [42] = molecular target: T1, albumin; assay: Protein binding in human serum albumin measured after 8 mins by HPLC analysis; assay type: ADME, cell-free; settings: read-out: PPB (converted)
4T1 [43] = assay: Antitumor activity against mouse 4T1 cells implanted in female BALB/c mouse assessed as inhibition of tumor growth at 1.2 mg/kg, iv administered twice a week for 2 weeks measured on day 18; assay type: functional; set-up: scale not given: the % may be the effect or the level left; settings: time 18 day

T1 sequence (P02768 whole entry): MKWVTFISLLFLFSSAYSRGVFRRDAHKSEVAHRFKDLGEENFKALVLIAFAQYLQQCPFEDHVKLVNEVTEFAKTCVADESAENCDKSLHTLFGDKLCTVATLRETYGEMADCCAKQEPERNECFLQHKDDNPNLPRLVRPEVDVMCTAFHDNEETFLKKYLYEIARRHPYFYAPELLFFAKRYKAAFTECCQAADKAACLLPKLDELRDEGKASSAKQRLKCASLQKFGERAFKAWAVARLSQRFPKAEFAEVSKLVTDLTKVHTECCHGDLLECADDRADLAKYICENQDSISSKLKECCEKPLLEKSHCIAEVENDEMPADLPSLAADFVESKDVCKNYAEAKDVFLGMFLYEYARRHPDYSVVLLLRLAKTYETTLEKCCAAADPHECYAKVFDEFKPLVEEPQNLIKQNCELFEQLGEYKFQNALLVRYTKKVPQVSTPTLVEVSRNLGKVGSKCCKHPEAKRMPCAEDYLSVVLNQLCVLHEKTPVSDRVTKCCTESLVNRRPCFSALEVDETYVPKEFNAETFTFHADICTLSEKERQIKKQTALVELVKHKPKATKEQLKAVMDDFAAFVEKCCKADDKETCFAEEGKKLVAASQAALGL

Q: With CC[C@@]1(O)C(=O)OCc2c1cc1n(c2=O)Cc2c-1nc1cc3c(cc1c2-c1ccncc1)OCO3 as the compound, how does the Drug uptake [1] read?
A: 1.09%

Q: What about the Activity (4T1 [2]) of the same compound?
A: 27%

Q: And the Drug uptake [3]?
A: Active

Q: And the Activity (4T1 [4])?
A: Active

Q: And the Drug uptake [5]?
A: Active

Q: And the Activity (Mus musculus [6])?
A: Active

Q: What about the MTD at 336 h [7] of the same compound?
A: 0.4 mg/kg

Q: And the Activity [8]?
A: 10%

Q: For CC[C@@]1(O)C(=O)OCc2c1cc1n(c2=O)Cc2c-1nc1cc3c(cc1c2-c1cc[n+](Cc2ccc(O[C@@H]4O[C@@H](C(=O)O)[C@@H](O)[C@H](O)[C@H]4O)c(NC(=O)CCCn4cc(CNC(=O)CCCCCN5C(=O)C=CC5=O)nn4)c2)cc1)OCO3.O=C([O-])C(F)(F)F, which Activity (MCF7 [9]) is on record?
A: Active

Q: And the fraction unbound at 2 min [10]?
A: 0.0188

Q: And the Activity (4T1 [11])?
A: Active

Q: What about the “fold change (FC)” value [12] of the same compound?
A: 14

Q: What about the Activity [13] of the same compound?
A: Non-Toxic

Q: And the fraction unbound at 15 s (albumin [14])?
A: 0.0679

Q: And the Activity (4T1 [15])?
A: Active

Q: What about the Activity (4T1 [16]) of the same compound?
A: Active

Q: What about the Drug uptake [17] of the same compound?
A: 17.34%

Q: What about the fraction unbound at 15 s [18] of the same compound?
A: 0.0723

Q: What about the Activity (MCF7 [19]) of the same compound?
A: Active

Q: What about the fraction unbound at 15 s [20] of the same compound?
A: 0.034

Q: And the Activity (4T1 [21])?
A: Active

Q: And the Activity (A549 [22])?
A: Active

Q: And the “fold change (FC)” value [23]?
A: 9

Q: And the Activity [24]?
A: Non-Toxic

Q: And the Activity (HCT-116 [25])?
A: Active

Q: And the Activity (HepG2 [26])?
A: Active

Q: What about the Activity [27] of the same compound?
A: 10%

Q: What about the Activity (4T1 [28]) of the same compound?
A: 56%

Q: And the Activity (Mus musculus [29])?
A: Active

Q: And the Activity [30]?
A: Non-Toxic

Q: What about the “fold change (FC)” value [31] of the same compound?
A: 16

Q: And the Activity (A549 [32])?
A: Active

Q: What about the “fold change (FC)” value [33] of the same compound?
A: 18

Q: What about the Activity (4T1 [34]) of the same compound?
A: Active

Q: What about the fraction unbound at 2 min [35] of the same compound?
A: 0.0512

Q: And the Activity [36]?
A: Non-Toxic

Q: And the Activity (HCT-116 [37])?
A: Active

Q: And the fraction unbound at 15 s [38]?
A: 0.0224

Q: What about the fraction unbound at 2 min [39] of the same compound?
A: 0.0291

Q: What about the Activity [40] of the same compound?
A: Non-Toxic

Q: What about the MTD at 336 h [7] of the same compound?
A: 2.5 mg/kg

Q: And the Activity (HepG2 [41])?
A: Active

Q: And the fraction unbound at 8 min (albumin [42])?
A: 0.015

Q: And the Activity (4T1 [43])?
A: 77%
